Values quoted from earlier work, collected in article PMC3345309 (Hepatology (Baltimore, Md.), 2012).

Tests used:
[1] = tested on: HCV Renilla reporter virus; settings: ref [18]
[2] = tested on: NS5A-augmented HCV IRES-mediated translation; settings: ref [18]

In the case of `O=c1c(O)c(-c2ccc(O)c(O)c2)oc2cc(O)cc(O)c12` [Quercetin], the “effect on virus production” value [1] is given as “blocked” and the “effect on NS5A-augmented IRES-mediated translation” value [2] is given as “blocked”.
